In data set [1] the test system is CV-1. Briefly: Toxicity on CV-1 cells. The settings on record: CV-1 (monkey kidney); data not shown.
The subject of data set [2] is trypsin-like enzymes. The conditions noted are these: relative to benzamidine; cited from earlier work.
Data set [3] has as its system cell growth. The conditions noted are these: cited from earlier work.
Data set [4] relates to BHK-21. Briefly: Toxicity on BHK-21 cells. The conditions noted are these: BHK-21 (hamster kidney); data not shown.
Data set [5] has as its system A549. Briefly: Toxicity on A549 cells. The settings on record: A549 (human lung); data not shown.
Data set [6] deals with RS virus. Nature of the data set: RS virus cytopathology / syncytium formation in Hep-2 cells (Table 3). The conditions noted are these: Hep-2, added 2 hour post infection.
In data set [7] the test system is RS virus.
The test system of data set [8] is BHK-21.
The subject of data set [9] is Hep-2 cells.
Data set [10] deals with CV-1.
The target of data set [11] is pancreatic kallikrein. The conditions noted are these: cited from earlier work.
The subject of data set [12] is A549.

We go through 2 molecules from patent publication US4619942A, “Inhibition of Respiratory Syncytial virus-induced cell fusion by amidino compounds” (priority 1983, dated 1986).

The term Ki denotes a measure of affinity in units of concentration, obtained from inhibition or displacement.

Like-named read-outs stand apart in the source and are kept apart here.

Regarding `N=C(N)c1ccc(OCCCCCOc2ccc(C(=N)N)cc2)cc1` [Compound 2, Pentamidine], the “Pattern of toxicity compared with Hep-2 cells” value in data set [1], in data set [4] and in data set [5] was “identical pattern of toxicity” each time. The “Effectiveness against trypsin-like enzymes versus benzamidine” value in data set [2] is reported as “generally an order of magnitude more effective than benzamidine”. For the same molecule, the “Concentration reducing cell growth rates” value in [3] is 5 to 40 µM. Besides, the “Effect on RS virus cytopathology (syncytia)” value in data set [6] (0.1 μM) and in data set [6] (1.0 μM) was “S” throughout. For the same molecule, the “Single cycle yield of RS virus (RS virus titers)” value in data set [7] is 6.3 × 10^4 TCID50/ml.

Regarding `N=C(N)c1ccc(OCc2cccc(COc3ccc(C(=N)N)cc3I)c2)c(I)c1` [Compound 6, α,α'-Bis(4-amidino-2-iodophenoxy)-m-xylene], the “Pattern of toxicity compared with Hep-2 cells” value in data set [8], in [10] and in data set [12] was “identical pattern of toxicity” each time. In addition, the “Cytotoxicity relative to other compounds (in words)” value in [9] was “as toxic as pentamidine”. Also, the inhibition constant Ki in [11] was 0.031 µM. Also, the “Effect on RS virus cytopathology (syncytia)” value in data set [6] (0.1 μM) and in [6] (1.0 μM) was “S” throughout. Also, in [7] (10 μM, moi 1-2, control titers 1-5 × 10^7), the “Single cycle yield of RS virus (RS virus titers)” value was 6.3 × 10^6 TCID50/ml.
